According to US4138488A, “Diphenylmethyl picolinic acid derivatives and their use as anti-acne agents” (Schering Corporation, priority 1977, dated 1979):

Assay: In vivo topical activity

Structure (SMILES)	in vivo topical activity
Oc1c(Cl)cc(Cl)c(Cl)c1Cc1c(O)c(Cl)cc(Cl)c1Cl [hexachlorophene]	neither hexachlorophene nor tetracycline exhibit substantial in vivo topical activity
CN(C)C1C(=O)C(C(N)=O)=C(O)C2(O)C(=O)C3=C(O)c4c(O)cccc4C(C)(O)C3CC12 (centres unmarked) [tetracycline]	neither hexachlorophene nor tetracycline exhibit substantial in vivo topical activity
